# Results: patent US9149038B2, “4-amino-6-(heterocyclic)picolinates and 6-amino-2-(heterocyclic)pyrimidine-4-carboxylates and their use as herbicides” (Dow AgroSciences LLC, priority 2013, dated 2015)
# Like-named read-outs stand apart in the source and are kept apart here.
# Test system: Direct Seeded Rice and weed species
# Test: Postemergence herbicidal activity in direct seeded rice, visual rating after 20-22 days and probit GR20/GR50/GR80/GR90 (Table 14)
# Assay type: in vivo
# Conditions: for pest or weed control at 17.5 g/ha / pest or weed control at 35 g/ha / pest or weed control at 70 g/ha: post-emergence, 504 h, postemergence; for pest or weed control at 17.5 g/ha: 17.5 g ai/ha; for pest or weed control at 35 g/ha: 35 g ai/ha; for pest or weed control at 70 g/ha: 70 g ai/ha
# Outline: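 Rice and weeds grown in loam–sand soil (pH about 8.1) in greenhouse to 2nd–3rd true leaf, then sprayed postemergence at 187 L/ha in acetone/DMSO with 1.25% (v/v) Agri-dex crop oil. Injury rated visually 0–100 after 20-22 days versus untreated plants; GR20, GR50, GR80, GR90 obtained by probit analysis across dose rates.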
# [1] = BRAPP (broadleaf signalgrass, Brachiaria platyphylla), read-out: Visual Growth Reduction (%) 21 Days After Application BRAPP
# [2] = CYPDI (small-flower flatsedge, Cyperus difformis), read-out: Visual Growth Reduction (%) 21 Days After Application CYPDI
# [3] = CYPES (yellow nutsedge, Cyperus esculentus), read-out: Visual Growth Reduction (%) 21 Days After Application CYPES
# [4] = CYPIR (rice flatsedge, Cyperus iria), read-out: Visual Growth Reduction (%) 21 Days After Application CYPIR
# [5] = DIGSA (large crabgrass, Digitaria sanguinalis), read-out: Visual Growth Reduction (%) 21 Days After Application DIGSA
# [6] = ECHCG (barnyardgrass, Echinochloa crus-galli), read-out: Visual Growth Reduction (%) 21 Days After Application ECHCG
# [7] = ECHCO (junglerice, Echinochloa colonum), read-out: Visual Growth Reduction (%) 21 Days After Application ECHCO
# [8] = LEFCH (Chinese sprangletop, Leptochloa chinensis), read-out: Visual Growth Reduction (%) 21 Days After Application LEFCH
# [9] = ORYSJ (Oryza sativa, rice crop), read-out: Visual Growth Reduction (%) 21 Days After Application ORYSJ
# [10] = ORYSK (Oryza sativa, rice crop), read-out: Visual Growth Reduction (%) 21 Days After Application ORYSK
# [11] = SCPJU (Japanese bulrush, Schoenoplectus juncoides Roxb.), read-out: Visual Growth Reduction (%) 21 Days After Application SCPJU
# [12] = SEBEX (hemp sesbania, Sesbania exaltata), read-out: Visual Growth Reduction (%) 21 Days After Application SEBEX
compound,measurement,setting,value
Nc1cc(-c2ccc3c(c2F)OC(F)(F)O3)nc(C(=O)O)c1Cl [Compound 41],GR50 BRAPP,"BRAPP (Brachiaria platyphylla), probit analysis, dose for 50 percent growth reduction",0.3 g ai/ha
same,GR80 BRAPP,"BRAPP (Brachiaria platyphylla), probit analysis, dose for 80 percent growth reduction",2 g ai/ha
same,GR90 BRAPP,"BRAPP (Brachiaria platyphylla), probit analysis, dose for 90 percent growth reduction",6 g ai/ha
same,GR50 CYPDI,"CYPDI (Cyperus difformis), probit analysis, dose for 50 percent growth reduction",4 g ai/ha
same,GR80 CYPDI,"CYPDI (Cyperus difformis), probit analysis, dose for 80 percent growth reduction",6 g ai/ha
same,GR90 CYPDI,"CYPDI (Cyperus difformis), probit analysis, dose for 90 percent growth reduction",7 g ai/ha
same,GR50 CYPES,"CYPES (Cyperus esculentus), probit analysis, dose for 50 percent growth reduction",0.0001 g ai/ha
same,GR80 CYPES,"CYPES (Cyperus esculentus), probit analysis, dose for 80 percent growth reduction",0.0001 g ai/ha
same,GR90 CYPES,"CYPES (Cyperus esculentus), probit analysis, dose for 90 percent growth reduction",0.0001 g ai/ha
same,GR50 CYPIR,"CYPIR (Cyperus iria), probit analysis, dose for 50 percent growth reduction",0.0001 g ai/ha
same,GR80 CYPIR,"CYPIR (Cyperus iria), probit analysis, dose for 80 percent growth reduction",0.0001 g ai/ha
same,GR90 CYPIR,"CYPIR (Cyperus iria), probit analysis, dose for 90 percent growth reduction",0.0001 g ai/ha
same,GR50 DIGSA,"DIGSA (Digitaria sanguinalis), probit analysis, dose for 50 percent growth reduction",0.001 g ai/ha
same,GR80 DIGSA,"DIGSA (Digitaria sanguinalis), probit analysis, dose for 80 percent growth reduction",0.131 g ai/ha
same,GR90 DIGSA,"DIGSA (Digitaria sanguinalis), probit analysis, dose for 90 percent growth reduction",2 g ai/ha
same,GR50 ECHCG,"ECHCG (Echinochloa crus-galli), probit analysis, dose for 50 percent growth reduction",0.0018 g ai/ha
same,GR80 ECHCG,"ECHCG (Echinochloa crus-galli), probit analysis, dose for 80 percent growth reduction",0.0018 g ai/ha
same,GR90 ECHCG,"ECHCG (Echinochloa crus-galli), probit analysis, dose for 90 percent growth reduction",0.0018 g ai/ha
same,GR50 ECHCO,"ECHCO (Echinochloa colonum), probit analysis, dose for 50 percent growth reduction",0.0003 g ai/ha
same,GR80 ECHCO,"ECHCO (Echinochloa colonum), probit analysis, dose for 80 percent growth reduction",0.0415 g ai/ha
same,GR90 ECHCO,"ECHCO (Echinochloa colonum), probit analysis, dose for 90 percent growth reduction",1 g ai/ha
same,GR50 LEFCH,"LEFCH (Leptochloa chinensis), probit analysis, dose for 50 percent growth reduction",6 g ai/ha
same,GR80 LEFCH,"LEFCH (Leptochloa chinensis), probit analysis, dose for 80 percent growth reduction",13 g ai/ha
same,GR90 LEFCH,"LEFCH (Leptochloa chinensis), probit analysis, dose for 90 percent growth reduction",20 g ai/ha
same,GR20 ORYSJ,"ORYSJ (Oryza sativa, rice crop), probit analysis, dose for 20 percent growth reduction",1 g ai/ha
same,GR20 ORYSK,"ORYSK (Oryza sativa, rice crop), probit analysis, dose for 20 percent growth reduction",2 g ai/ha
same,GR50 SCPJU,"SCPJU (Schoenoplectus juncoides Roxb.), probit analysis, dose for 50 percent growth reduction",0.0001 g ai/ha
same,GR80 SCPJU,"SCPJU (Schoenoplectus juncoides Roxb.), probit analysis, dose for 80 percent growth reduction",0.0001 g ai/ha
same,GR90 SCPJU,"SCPJU (Schoenoplectus juncoides Roxb.), probit analysis, dose for 90 percent growth reduction",0.0001 g ai/ha
same,GR50 SEBEX,"SEBEX (Sesbania exaltata), probit analysis, dose for 50 percent growth reduction",4 g ai/ha
same,GR80 SEBEX,"SEBEX (Sesbania exaltata), probit analysis, dose for 80 percent growth reduction",9 g ai/ha
same,GR90 SEBEX,"SEBEX (Sesbania exaltata), probit analysis, dose for 90 percent growth reduction",13 g ai/ha
same,pest or weed control at 17.5 g/ha,[1],95 to 100%
same,pest or weed control at 35 g/ha,[1],95 to 100%
same,pest or weed control at 70 g/ha,[1],95 to 100%
same,pest or weed control at 17.5 g/ha,[2],95 to 100%
same,pest or weed control at 35 g/ha,[2],95 to 100%
same,pest or weed control at 70 g/ha,[2],95 to 100%
same,pest or weed control at 17.5 g/ha,[3],95 to 100%
same,pest or weed control at 35 g/ha,[3],95 to 100%
same,pest or weed control at 70 g/ha,[3],95 to 100%
same,pest or weed control at 17.5 g/ha,[4],95 to 100%
same,pest or weed control at 35 g/ha,[4],95 to 100%
same,pest or weed control at 70 g/ha,[4],95 to 100%
same,pest or weed control at 17.5 g/ha,[5],95 to 100%
same,pest or weed control at 35 g/ha,[5],95 to 100%
same,pest or weed control at 70 g/ha,[5],95 to 100%
same,pest or weed control at 17.5 g/ha,[6],85 to 94%
same,pest or weed control at 35 g/ha,[6],95 to 100%
same,pest or weed control at 70 g/ha,[6],95 to 100%
same,pest or weed control at 17.5 g/ha,[7],95 to 100%
same,pest or weed control at 35 g/ha,[7],95 to 100%
same,pest or weed control at 70 g/ha,[7],95 to 100%
same,pest or weed control at 17.5 g/ha,[8],85 to 94%
same,pest or weed control at 35 g/ha,[8],95 to 100%
same,pest or weed control at 70 g/ha,[8],95 to 100%
same,pest or weed control at 17.5 g/ha,[9],85 to 94%
same,pest or weed control at 35 g/ha,[9],95 to 100%
same,pest or weed control at 70 g/ha,[9],95 to 100%
same,pest or weed control at 17.5 g/ha,[10],60 to 74%
same,pest or weed control at 35 g/ha,[10],75 to 84%
same,pest or weed control at 70 g/ha,[10],85 to 94%
same,pest or weed control at 17.5 g/ha,[11],95 to 100%
same,pest or weed control at 35 g/ha,[11],95 to 100%
same,pest or weed control at 70 g/ha,[11],95 to 100%
same,pest or weed control at 17.5 g/ha,[12],95 to 100%
same,pest or weed control at 35 g/ha,[12],95 to 100%
same,pest or weed control at 70 g/ha,[12],95 to 100%
